Holding throughout (format): in vivo
Series [1] has as its system 6-OHDA injected mice. The series can be described thus: Anti-TH immunohistochemistry, 6-OHDA-induced striatal denervation. The conditions noted are these: 10 mg/kg. As to the method:
Immunohistochemistry analysis using anti-tyrosine hydroxylase (TH) antibody was performed in mouse midbrain sections to quantify 6-OHDA-induced striatal denervation in mice injected with 6-OHDA and non-injected (control) sides of the brain. […] In contrast, both the 6-OHDA/rapamycin-treated and the 6-OHDA/Formula I-treated sides of the brain show increased staining with the anti-TH antibody, as indicated by the dark shading in those figures. FIG. 3B presents the mean and standard error of the mean (SEM) of the integrated density of anti-TH antibody staining in the striatum, as well as statistical analysis of the results for the groups of mice.

Series [2] deals with 6-OHDA injected mice. Put plainly: TH protein expression in 6-OHDA-treated striatum. As to conditions: 3 mg/kg, two-day pre-treatment. As to the method: (§1) Immunohistochemistry analysis using anti-tyrosine hydroxylase (TH) antibody was also performed to quantify 6-OHDA-induced neuronal loss in mice injected with 6-OHDA and non-injected (control) sides of the brain. […] FIG. 4B presents the mean and standard error of the mean (SEM) as well as statistical analysis of the results. […] This staining data was confirmed by staining for TH protein expression in the 6-OHDA-treated striatum.

Series [3] is described as follows: Brain concentrations after IP administration to mice (LC-MS/MS of brain homogenates). As to conditions: for Concentration in Mouse Brain, individual animals / concentration at 24 h: Day 3, 24.0 hrs; for Concentration in Mouse Brain, individual animals: Animal ID 1-3; for concentration at 24 h: mouse, brain, ip. As to the method:
To carry out these assays using brain homogenates, 20 uL of samples and matrix calibration standards into wells of a 96-well plate, and 10 uL of blank matrix allocated for matrix blanks and control blanks. 160 uL internal standard was then added to all samples except matrix blanks, and 160 uL ACN added to matrix blanks. Samples were then vortexed for 5 minutes and centrifuge for 5 minutes at >3500 rpm. 150 uL of the supernatant was then transferred to a new 96-well plate, and the plates blown down to dryness at 35° C., reconstituted with 90 uL of 70:30 water:acetonitrile (ACN) solution, covered and vortexed prior to analysis. LC and MS conditions were the same as described above for the whole blood analysis.

A short description of series [4]: Whole blood concentrations after IP administration to mice (LC-MS/MS). The conditions noted are these: for concentration at 1 h: Day 3, 1.00 hrs; for concentration at 24 h: Day 3, 24.0 hrs. As to the method: These determinations were made using protein precipitation, liquid chromatography (LC), and mass spectrometry (MS/MS). Ten μl aliquots of whole blood and matrix calibration standards were distributed in a 96-well plate; 10 μl aliquots of blank matrix for matrix blanks and control blanks were included as controls. Ten μl of water was added to each sample followed by vortexing. […] This was followed by a five-minute vortex at >3500 rpm. One hundred fifty μl of the resultant supernatant was then transferred to a new 96-well plate and the samples blown to dryness at 35° C. […]

For series [5], the system named is 6-OHDA injected mice. Put plainly: 6-OHDA cylinder test (motor performance). The conditions noted are these: 10 mg/kg, three days pre-treatment before 6-OHDA (80 μg); seven day test. As to the method:
The data presented in FIG. 2B as mean and standard error of the mean (SEM), for a seven day test. Statistical analyses as compared to baseline mice were performed using the one-way Anova test (*: p<0.05). […] Data is presented as mean and SEM. Statistical analyses were performed using one-way Anova test (*: p<0.05; ***: p<0.001. n.s.: not significant.)

Series [6] relates to 6-OHDA injected mice. The series can be described thus: Anti-TH immunohistochemistry, 6-OHDA-induced TH+ neuronal loss in SN. The conditions noted are these: 10 mg/kg. On the procedure: as §1
Setting [7] is: 2 mg/kg or 10 mg/kg IP QD for three days.
Setting [8] is: mouse, whole blood, intraperitoneal, 10 mg/kg, 10 mg/kg IP QD x 3 days, Animal ID 4-6, read-out: Concentration in Mouse Whole Blood, individual animals.
[9] abbreviates: mouse, whole blood, intraperitoneal, 10 mg/kg, 10 mg/kg IP QD x 3 days, read-out: Concentration in Mouse Whole Blood, Mean.

The source of these data is patent publication US20210030726A1 (MOUNT TAM THERAPEUTICS, INC., priority 2018, published 2021).

SMILES strings stand for the structures. Values joined by “and” are separate entries in the source; they are usually repeats but may differ in a detail not shown here. Equal values may be shown once. Read-outs that look alike come from different tables or passages of the source.

Consider `CO[C@H]1C[C@@H]2CC[C@@H](C)[C@@](O)(O2)C(=O)C(=O)N2CCCC[C@H]2C(=O)O[C@H]([C@H](C)C[C@@H]2C[C@@H]3C[C@H]2C[C@H]3O)CC(=O)[C@H](C)/C=C(\C)[C@@H](O)[C@@H](OC)C(=O)[C@H](C)C[C@H](C)/C=C/C=C/C=C/1C` [Formula I, 37R-hydroxynorbornylrapamycin], for which the “6-OHDA-induced striatal denervation vs rapamycin (FIG. 3A)” value in series [1] is “also decreased 6-OHDA-induced denervation as compared to rapamycin”. For the same compound, the “6-OHDA-induced striatal denervation vs vehicle control (TH integrated density, FIG. 3A)” value in series [1] is “decreased 6-OHDA-induced denervation as compared to vehicle control”. The “TH protein expression in 6-OHDA-treated striatum (FIGS. 4C-4F)” value in series [2] is “non-statistically significant difference”. Moreover, the “Brain exposure (in words)” value in series [3] (setting [7]) is “sufficient concentrations in brain over time”. Also, the “Concentration in Mouse Brain, individual animals” value in series [3] (Group 1 (2 mg/kg) IP QD x 3 days, 2 mg/kg) was 31.1 ng/g and 39.2 ng/g and 68.1 ng/g; in series [3] (Group 2 (10 mg/kg) IP QD x 3 days, 10 mg/kg), 140 ng/g (2×) and 299 ng/g. Moreover, the concentration at 24 h in series [3] (2 mg/kg, Group 1 (2 mg/kg) IP QD x 3 days) was 46.1 ng/g; in series [3] (10 mg/kg, Group 2 (10 mg/kg) IP QD x 3 days), 193 ng/g; in series [4] (setting [8]) it was 292 ng/mL; in series [4] (setting [9]), 372 ng/mL. Moreover, the “Whole blood exposure (in words)” value in series [4] (setting [7]) is listed as “sufficient concentrations in whole blood over time”. Further, the “Concentration in Mouse Whole Blood, individual animals” value in series [4] (10 mg/kg IP QD x 3 days, Day 2, 1.00 hrs, Animal ID 4-6) is reported as “AQL (Original value above quantitation limit (1000 ng/mL))”; in series [4] (10 mg/kg IP QD x 3 days, Day 2, 6.00 hrs, Animal ID 4-6), “AQL (Original value above quantitation limit (1000 ng/mL))”. The concentration at 1 h worked out at 2890 ng/mL in series [4] (setting [8]) and 3200 ng/mL in series [4] (setting [9]). In series [4] (mouse, whole blood, intraperitoneal, 10 mg/kg, 10 mg/kg IP QD x 3 days, Day 3, 2.00 hrs), this compound registered a concentration at 2 h of 1900 ng/mL. Also, in series [4] (mouse, whole blood, intraperitoneal, 10 mg/kg, 10 mg/kg IP QD x 3 days, Day 3, 6.00 hrs), the concentration at 6 h came to 1380 ng/mL. In addition, the “Contralateral touches, percent total touches (FIG. 2B)” value in series [5] was “outperformed rapamycin and the vehicle control by bringing the number of touches closer to that of baseline mice”. Further, the “6-OHDA-induced neuronal loss vs vehicle control (TH-positive somas in SN, FIG. 4A)” value in series [6] is listed as “decreased 6-OHDA-induced neuronal loss as compared to vehicle control”.
